Test results as given in patent publication US11097009B2, “CTB-PI polyamide conjugate for activating expression of specific gene” (KYOTO UNIVERSITY, priority 2015, dated 2021).

Legend:
[1] = test system: Human dermal fibroblasts (HDFs); assay: Microarray analysis of genome-wide gene expression; type: cell-based; conditions: 1 μM effector, 48 hours, vs 0.5% DMSO
[2] = test system: HDAC (nucleus extracts of HeLa cells); assay: HDAC inhibitory activity evaluation (Color de Lys Substrate Deacetylation); type: biochemical; conditions: 0.2 mM substrate, 37° C., 30 minutes, absorption at 405 nm
Description: Trichostatin A (TSA), SAHA, and CTB were evaluated for their inhibitory activity against Color de Lys™ Substrate Deacetylation using nucleus extracts of HeLa cells. The nucleus extracts of HeLa cells were incubated with 0.2 mM of a substrate at 37° C. After 30 minutes, the reaction was terminated. Then, absorption at 405 nm was measured using Color de Lys™ Developer and thereby evaluated as HDAC inhibitory activity. The strong HDAC inhibitor trichostatin A (TSA) was compared with SAHA and CTB in terms of HDAC inhibitory activity.

| SMILES | gene groups whose expression is activated (microarray clustering analysis) [1] | HDAC inhibitory activity [2] |
| --- | --- | --- |
| CCOc1ccccc1C(=O)Nc1ccc(Cl)c(C(F)(F)F)c1 [CTB, N-(4-chloro-3-(trifluoromethyl)phenyl)-2-ethoxybenzamide] | activates the expression of a connective tissue disorder-related gene group | lack HDAC inhibitory activity |
| O=C(CCCCCCC(=O)Nc1ccccc1)NO [SAHA, suberoylanilide hydroxamic acid] | activates the expression of cancer- and cardiovascular disease-related gene groups |  |
